Inconclusive results and toxic doses are left out. How the source made its calls: active means survival T/C of 150% or more; inactive means T/C below 125% in these data.
Test system: CD2F1 mice, L1210 leukemia ip, survival T/C
Assay: NCI In Vivo Anticancer Drug Screen. Data for tumor model L1210 Leukemia (intraperitoneal) in CD2F1 (CDF1) mice
Conditions: higher = longer survival
Outline: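 Implant tumor; dose compound or vehicle; measure endpoint in both groups; report treated divided by control.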

[1] = endpoint: mean survival time, dose: 100.0 mg/kg/injection, schedule: Q04DX003 (ip), vehicle: saline with Tween-80
[2] = endpoint: mean survival time, dose: 200.0 mg/kg/injection, schedule: Q04DX003 (ip), vehicle: saline with Tween-80
[3] = endpoint: mean survival time, dose: 400.0 mg/kg/injection, schedule: Q04DX003 (ip), vehicle: saline with Tween-80
[4] = endpoint: mean survival time, dose: 100.0 mg/kg/injection, schedule: Q04DX003 (ip), vehicle: saline
[5] = endpoint: mean survival time, dose: 200.0 mg/kg/injection, schedule: Q04DX003 (ip), vehicle: saline
[6] = endpoint: mean survival time, dose: 400.0 mg/kg/injection, schedule: Q04DX003 (ip), vehicle: saline
[7] = endpoint: mean survival time, dose: 100.0 mg/kg/injection, schedule: Q01DX001 (ip), vehicle: saline with Tween-80
[8] = endpoint: mean survival time, dose: 200.0 mg/kg/injection, schedule: Q01DX001 (ip), vehicle: saline with Tween-80
[9] = endpoint: mean survival time, dose: 400.0 mg/kg/injection, schedule: Q01DX001 (ip), vehicle: saline with Tween-80
[10] = endpoint: mean survival time, dose: 12.5 mg/kg/injection, schedule: Q04DX002 (ip), vehicle: saline with Tween-80
[11] = endpoint: mean survival time, dose: 100.0 mg/kg/injection, schedule: Q01DX009 (ip), vehicle: saline with Tween-80
[12] = endpoint: mean survival time, dose: 200.0 mg/kg/injection, schedule: Q01DX009 (ip), vehicle: saline with Tween-80

Measured: T/C

[Cl][Pt+2][Cl].[NH-]CC(=O)O.[NH-]CC(=O)O
inactive: endpoint: mean survival time, dose: 12.5 mg/kg/injection, schedule: Q01DX009 (ip), vehicle: saline 96 % of control | endpoint: mean survival time, dose: 25.0 mg/kg/injection, schedule: Q01DX009 (ip), vehicle: saline 101 % of control | endpoint: mean survival time, dose: 50.0 mg/kg/injection, schedule: Q01DX009 (ip), vehicle: saline 108 % of control | endpoint: mean survival time, dose: 100.0 mg/kg/injection, schedule: Q01DX009 (ip), vehicle: saline 98 % of control | endpoint: mean survival time, dose: 200.0 mg/kg/injection, schedule: Q01DX009 (ip), vehicle: saline 96 % of control

CC(C)(C)SC1C(O)C(CO)OC1n1ccc(N)nc1=O (stereo not given)
inactive: endpoint: median survival time, dose: 12.5 mg/kg/injection, schedule: Q01DX005 (ip), vehicle: saline 103 % of control | endpoint: median survival time, dose: 25.0 mg/kg/injection, schedule: Q01DX005 (ip), vehicle: saline 96 % of control | endpoint: median survival time, dose: 50.0 mg/kg/injection, schedule: Q01DX005 (ip), vehicle: saline 103 % of control | endpoint: median survival time, dose: 100.0 mg/kg/injection, schedule: Q01DX005 (ip), vehicle: saline 108 % of control | endpoint: median survival time, dose: 200.0 mg/kg/injection, schedule: Q01DX005 (ip), vehicle: saline 103 % of control

O=S(=O)(F)c1ccc(C[P+](c2ccccc2)(c2ccccc2)c2ccccc2)c(Cl)c1
inactive: endpoint: mean survival time, dose: 18.8 mg/kg/injection, schedule: Q01DX009 (ip), vehicle: saline 103 % of control | endpoint: mean survival time, dose: 18.8 mg/kg/injection, schedule: Q04DX003 (ip), vehicle: saline 114 % of control | endpoint: mean survival time, dose: 37.5 mg/kg/injection, schedule: Q01DX009 (ip), vehicle: saline 100 % of control | endpoint: mean survival time, dose: 37.5 mg/kg/injection, schedule: Q04DX003 (ip), vehicle: saline 116 % of control | endpoint: mean survival time, dose: 75.0 mg/kg/injection, schedule: Q01DX001 (ip), vehicle: saline 103 % of control | endpoint: mean survival time, dose: 75.0 mg/kg/injection, schedule: Q04DX003 (ip), vehicle: saline 112 % of control

Brc1ccc2c(c1)CCCC2
inactive: [1] 95 % of control | [2] 103 % of control | [3] 93 % of control

c1ccc(P2(c3ccccc3)=NP(c3ccccc3)(c3ccccc3)=NP(c3ccccc3)(c3ccccc3)=N2)cc1
inactive: [4] 102 % of control | [5] 94 % of control | [6] 96 % of control

CC(C)(C)C1CC=CCC1 (stereo not given)
inactive: [1] 98 % of control | [2] 98 % of control

COC(=O)Cc1cc(O)c(C(=O)OC)c(O)c1C(=O)OC
inactive: [7] 103 % of control | [8] 98 % of control | [9] 98 % of control

COc1ccc(CCNc2ccc(OC)c(OC)c2)cc1OC
inactive: endpoint: mean survival time, dose: 12.5 mg/kg/injection, schedule: Q01DX009 (ip), vehicle: water 100 % of control | endpoint: mean survival time, dose: 25.0 mg/kg/injection, schedule: Q01DX009 (ip), vehicle: water 96 % of control | endpoint: mean survival time, dose: 50.0 mg/kg/injection, schedule: Q01DX009 (ip), vehicle: water 100 % of control | endpoint: mean survival time, dose: 100.0 mg/kg/injection, schedule: Q01DX009 (ip), vehicle: water 96 % of control | endpoint: mean survival time, dose: 200.0 mg/kg/injection, schedule: Q01DX009 (ip), vehicle: water 91 % of control

O=C1C=CC(=O)N1c1cccc(N2C(=O)C=CC2=O)c1
inactive: endpoint: mean survival time, dose: 4.0 mg/kg/injection, schedule: Q01DX009 (ip), vehicle: saline 96 % of control | endpoint: mean survival time, dose: 8.0 mg/kg/injection, schedule: Q01DX009 (ip), vehicle: saline 106 % of control

C1CC2N=NC1C21CC1.[Cl][Cu][Cl]
inactive: endpoint: mean survival time, dose: 6.25 mg/kg/injection, schedule: Q04DX002 (ip), vehicle: saline with Tween-80 96 % of control | [10] 108 % of control

Cc1ccc(-c2nc(SCc3ccccc3)[nH]c(=O)c2CCO)cc1
inactive: endpoint: mean survival time, dose: 100.0 mg/kg/injection, schedule: Q04DX003 (ip), vehicle: Klucel (hydroxypropylcellulose) (HPC) 93 % of control | endpoint: mean survival time, dose: 200.0 mg/kg/injection, schedule: Q04DX003 (ip), vehicle: Klucel (hydroxypropylcellulose) (HPC) 96 % of control | endpoint: mean survival time, dose: 400.0 mg/kg/injection, schedule: Q04DX003 (ip), vehicle: Klucel (hydroxypropylcellulose) (HPC) 91 % of control

CC(C)[C@]1(O)CC[C@H]2[C@@H]3CCc4cc(O)ccc4[C@H]3CC[C@@]21C
inactive: endpoint: mean survival time, dose: 100.0 mg/kg/injection, schedule: Q01DX009 (sc), vehicle: Klucel (hydroxypropylcellulose) (HPC) 104 % of control | endpoint: mean survival time, dose: 200.0 mg/kg/injection, schedule: Q01DX009 (sc), vehicle: Klucel (hydroxypropylcellulose) (HPC) 98 % of control | endpoint: mean survival time, dose: 400.0 mg/kg/injection, schedule: Q01DX009 (sc), vehicle: Klucel (hydroxypropylcellulose) (HPC) 92 % of control

C=C1CCCCCCCCCCC1O (stereo not given)
inactive: [1] 91 % of control | [2] 95 % of control | [3] 91 % of control

O=C1C2C3CCC(C3)C2C(=O)C2C3CCC(C3)C12 (stereo not given)
inactive: endpoint: mean survival time, dose: 100.0 mg/kg/injection, schedule: Q04DX003 (ip), vehicle: other 93 % of control | endpoint: mean survival time, dose: 200.0 mg/kg/injection, schedule: Q04DX003 (ip), vehicle: other 89 % of control | endpoint: mean survival time, dose: 400.0 mg/kg/injection, schedule: Q04DX003 (ip), vehicle: other 93 % of control

COC1OC(COC(=O)c2ccccc2)C(OC(=O)c2ccccc2)C(OC(=O)c2ccccc2)C1OC(=O)c1ccccc1 (stereo not given)
inactive: [1] 95 % of control | [2] 91 % of control | [3] 87 % of control

CCn1c(=O)c2c(nc(Cl)n2C2OC(COC(C)=O)C(OC(C)=O)C(OC(C)=O)C2NC(C)=O)n(CC)c1=O (stereo not given)
inactive: endpoint: mean survival time, dose: 12.5 mg/kg/injection, schedule: Q01DX005 (ip), vehicle: distilled water + Tween-80 98 % of control | endpoint: mean survival time, dose: 25.0 mg/kg/injection, schedule: Q01DX005 (ip), vehicle: distilled water + Tween-80 97 % of control | endpoint: mean survival time, dose: 50.0 mg/kg/injection, schedule: Q01DX005 (ip), vehicle: distilled water + Tween-80 97 % of control | endpoint: mean survival time, dose: 100.0 mg/kg/injection, schedule: Q01DX005 (ip), vehicle: distilled water + Tween-80 95 % of control | endpoint: mean survival time, dose: 200.0 mg/kg/injection, schedule: Q01DX005 (ip), vehicle: distilled water + Tween-80 97 % of control

O=C(O)C1(C(=O)O)CC2(CCC2)C1
inactive: endpoint: mean survival time, dose: 100.0 mg/kg/injection, schedule: Q01DX001 (ip), vehicle: saline 100 % of control | endpoint: mean survival time, dose: 200.0 mg/kg/injection, schedule: Q01DX001 (ip), vehicle: saline 100 % of control | endpoint: mean survival time, dose: 400.0 mg/kg/injection, schedule: Q01DX001 (ip), vehicle: saline 100 % of control

O=C(CNC(=O)Nc1cccc([N+](=O)[O-])c1)NNC(=O)Nc1ccccc1F
inactive: [11] 88 % of control | [12] 88 % of control

C(=N\N=C\c1ccco1)/c1ccco1
inactive: endpoint: mean survival time, dose: 25.0 mg/kg/injection, schedule: Q01DX001 (ip), vehicle: saline with Tween-80 87 % of control | endpoint: mean survival time, dose: 50.0 mg/kg/injection, schedule: Q01DX001 (ip), vehicle: saline with Tween-80 97 % of control | [7] 100 % of control | [1] 97 % of control | [2] 101 % of control

CCC1(CC)C(=O)C=CNC1=O
inactive: endpoint: mean survival time, dose: 50.0 mg/kg/injection, schedule: Q01DX009 (ip), vehicle: saline with Tween-80 100 % of control | [11] 94 % of control | [12] 103 % of control

O=C1c2ccccc2CCC12OC2c1ccc(Cl)cc1 (stereo not given)
inactive: endpoint: mean survival time, dose: 50.0 mg/kg/injection, schedule: Q04DX003 (ip), vehicle: saline 106 % of control | [4] 101 % of control | [5] 101 % of control | [6] 98 % of control

CC(=O)Nc1nc(Br)c2ccccc2c1-c1ccc(N(CCCl)CCCl)cc1
inactive: endpoint: mean survival time, dose: 3.13 mg/kg/injection, schedule: Q04DX003 (ip), vehicle: DMSO 104 % of control | endpoint: mean survival time, dose: 6.25 mg/kg/injection, schedule: Q04DX003 (ip), vehicle: DMSO 102 % of control | endpoint: mean survival time, dose: 12.5 mg/kg/injection, schedule: Q04DX003 (ip), vehicle: DMSO 101 % of control | endpoint: mean survival time, dose: 25.0 mg/kg/injection, schedule: Q04DX003 (ip), vehicle: DMSO 98 % of control

c1ccc(N=Nc2n[nH]c3ccccc23)cc1
inactive: [1] 95 % of control | [2] 98 % of control | [3] 95 % of control

COc1ccc(/C=C/C(=O)Oc2cc(O)cc(O)c2)cc1
inactive: [10] 97 % of control | endpoint: mean survival time, dose: 25.0 mg/kg/injection, schedule: Q04DX002 (ip), vehicle: saline with Tween-80 93 % of control | endpoint: mean survival time, dose: 50.0 mg/kg/injection, schedule: Q04DX002 (ip), vehicle: saline with Tween-80 101 % of control | [8] 94 % of control | [9] 92 % of control

Nc1cc(Cl)nnc1Cl
inactive: endpoint: mean survival time, dose: 50.0 mg/kg/injection, schedule: Q01DX009 (ip), vehicle: other 97 % of control | endpoint: mean survival time, dose: 100.0 mg/kg/injection, schedule: Q01DX009 (ip), vehicle: other 103 % of control | [4] 98 % of control | endpoint: mean survival time, dose: 200.0 mg/kg/injection, schedule: Q01DX009 (ip), vehicle: other 97 % of control | [5] 101 % of control

Reference: PubChem BioAssay AID256 (DTP/NCI, 2004)
